# Test system: client proteins and HSP90-related proteins in SK-OV-3 tumor
# Assay: Immunoblot: change in expression amount of proteins in SK-OV-3 tumor after administration
# Format: in vivo, human
# Settings: 40 mg/kg tail vein
# Experimental: Thirty micrograms of total protein was subjected to electrophoresis in 8% acrylamide gel. Then, the protein was transferred onto a PVDF membrane at a voltage of 100 V for 60 min at 4 °C. The PVDF membrane on which the protein had been transferred was blocked in TBS-Tween (0.1%) containing 5% milk at normal temperature for 60 min, followed by incubating with each of primary antibodies described below overnight at 4 °C. • Primary antibody (supplier, product number, dilution ratio, exposure time) • EGFR (Santa Cruz, sc-003, 1:500, 1 min) • HER2 (Santa Cruz, sc-284, 1:2000, 5 sec) • HER3 (Santa Cruz, sc-285, 1:400, 1 min) • Met (Santa Cruz, sc-161, 1:500, 5 min) • IGF-1R (Cell Signaling, #3027, 1:500, 15 sec) • Raf-1 (Santa Cruz, sc-133, 1:300, 5 min) • Stat3 (BD Transduction Laboratory, 610189, 1:500, 15 sec) • pAkt (Cell Signaling, #4058S, 1:500, 1 min) • Akt (Cell Signaling, #4691S, 1:2000, 15 sec) • pERK (Santa Cruz, sc-16982-R, 1:500, 1 min) • ERK (Invitrogen, 44-654G, 1:1000, 15 sec) • mTOR (Cell Signaling, #2983S, 1:500, 15 sec) • MEK (Cell Signaling, #9122S, 1:500, 1 min) • HSP90 (Enzo Life Science, SPA-830, 1:500, 15 sec) • HSP70 (Enzo Life Science, SPA-810, 1:2000, 15 sec) • Actin (Santa Cruz, sc-8432/HRP, 1:300, 5 min)
# After incubation, the blot membrane was washed with TBS-Tween (0.1%) at normal temperature for 10 min three times to thereby remove excessive primary antibodies. Then, the membrane was incubated with an appropriate secondary antibody (anti-rabbit IgG HRP conjugate or anti-mouse IgG HRP conjugate) at normal temperature for 60 min. The membrane was washed with TBS-Tween (0.1%) at normal temperature for 10 min three times to thereby remove excessive secondary antibodies. Then, the membrane was incubated with ECL Western Blotting Detection Reagents (GE Healthcare) for 2 min, followed by exposing to an X-ray film. Thus, the signal of the intended protein was detected.
# Tumors to be transplanted derived from human ovarian cancer cell lines SK-OV-3 and TOV-21G were prepared in the same manner as in Example 1.
# Protein extraction liquid was obtained from each tumor as follows. The human ovarian cancer tumors maintained by passage in SCID mice were transplanted subcutaneously to the dorsums of SCID mice with trocars. When the tumor volume of each tumor reached about 300 mm^3, the triazole (A-1) synthesized as the HSP90 inhibitor in Synthetic Example 1 was administered into a tail vein of each of the mice at a dose of 40 mg/kg in the same manner as in Example 1. The tumors were removed before and 4 and 24 hours after administration. At each time point, the tumors were removed from three mice for the SK-OV-3 tumor and two mice for the TOV-21G tumor. Protein extraction liquids were obtained in the same manner as in Example 1. The total protein amount in each of the extraction liquids was quantified in the same manner as in Example 1.
# The immunoblot method was used to verify change in expression amounts of the client proteins and the HSP90-related proteins in the SK-OV-3 and TOV-21G tumors to which the triazole compound (A-1) had been administered, in the same manner as in Example 1. The types and dilution ratios of primary antibodies and secondary antibodies used were the same as in Example 1.
# [1] = SK-OV-3 tumor after administration
# [2] = SK-OV-3 tumor, 4 hours after administration
smiles,measurement,setting,value
"CC(C)c1cc(-c2n[nH]c(=O)n2-c2ccc(CN3CCN(C)CC3)cc2)c(O)cc1O [A-1, 5-(2,4-dihydroxy-5-isopropyl-phenyl)-4-[4-(4-methyl-piperazin-1-ylmethyl)-phenyl]-2,4-dihydro-[1,2,4]triazol-3-one]",expression amount of total Akt,[1],not changed
same,expression amount of total ERK,[1],not changed
same,expression level of EGFR,[2],significantly decreased
same,expression level of IGF-1R,[2],significantly decreased
same,expression level of Met,[2],significantly decreased
same,expression level of mTOR,[2],significantly decreased
same,expression level of pAkt,[2],significantly decreased
same,expression level of pERK,[2],significantly decreased

# Reference: patent US20160313301A1, “METHOD FOR PREDICTING ANTITUMOR EFFICACY OF HSP90 INHIBITOR IN CANCER TREATMENT” (NIPPON KAYAKU KABUSHIKI KAISHA, priority 2013, published 2016)
